In patent US8273754B2, “Substituted 1H-pyrazolo[3,4-D]pyrimidine-6-amine compounds” (ArQule, Inc., priority 2008, dated 2012):
Read-outs that look alike come from different tables or passages of the source.

System: cancer cells
Test: MTS cell growth inhibition assay (72 hours)
Format: cell-based
Protocol: Cells were maintained at 37° C., 5% CO2 in DMEM media supplemented with 1% fetal bovine serum, penicillin/streptomycin and fungizone (Invitrogen). Cells were seeded into 96-well tissue culture plates at 3000 per well and cultured at 37° C. for 18 hours. Test compounds were dissolved and diluted to 300× in DMSO then further diluted 1:40 in DMEM before addition to cells (1:7.5 dilution). Cells were incubated with test compounds for 72 hours followed by incubation with tetrazolium compound (3-(4,5-dimethylthiazol-2-yl)-5-(3-carboxymethoxyphenyl)-2-(4-sulfophenyl)-2H-tetrazolium, inner salt; MTS) and the electron coupling reagent, phenazine methosulfate (PMS) for 4 hours. […] The ability of compounds to inhibit cell growth in this assay is correlated with the reduction of dehydrogenase enzyme activity found in metabolically active cells. The measurement of the absorbance of the formazan was assessed using an ENVISION™ (Perkin Elmer) microplate reader at 492 nm. The calculated IC50 value is the concentration of the test compound that causes a 50% decrease in the absorbance. […] A=>79% inhibition, B=>50 to 79% inhibition, C=<50% inhibition.

[1] = Homo sapiens, DLD-1, 72 h, DLD-1 cells, read-out: DLD-1 MTS 72 hr at 10 μM
[2] = Homo sapiens, KATO III, 72 h, KATO III cells, read-out: KATO III MTS 72 hr at 10 μM
[3] = Homo sapiens, MDA-MB-231, 72 h, MDA-MB-231 cells, read-out: MDA-MB-231 MTS 72 hr at 10 μM
[4] = Homo sapiens, NCI-H1299, 72 h, NCI-H1299 cells, read-out: NCI-H1299 MTS 72 hr at 10 μM
[5] = PaCa-2, 72 h, PACA-2 cells, read-out: PACA-2 MTS 72 hr at 10 μM

Structure (SMILES)	inhibition at 10 µM [1] [%]	inhibition at 10 µM [2] [%]	inhibition at 10 µM [3] [%]	inhibition at 10 µM [4] [%]	inhibition at 10 µM [5] [%]
COC(=O)c1ccccc1NC(=O)N1CC(Nc2nc(N)nc3[nH]ncc23)Cc2ccccc21 (stereo not shown) [Compound 119, methyl 2-(3-(6-amino-1H-pyrazolo[3,4-d]pyrimidin-4-ylamino)-1,2,3,4-tetrahydroquinoline-1-carboxamido)benzoate]	> 79	> 79	> 79	> 79	> 79
Cc1ccccc1Oc1cccc(S(=O)(=O)N2CC(Nc3nc(N)nc4[nH]ncc34)Cc3ccccc32)c1 (stereo not shown) [Compound 71, N4-(1-(3-(o-tolyloxy)phenylsulfonyl)-1,2,3,4-tetrahydroquinolin-3-yl)-1H-pyrazolo[3,4-d]pyrimidine-4,6-diamine]	> 79	> 79	> 79	50 to 79	> 79
Cc1ccc(CNC(=O)N2CC(Nc3nc(N)nc4[nH]ncc34)Cc3ccccc32)cc1 (stereo not shown) [Compound 110, 3-(6-amino-1H-pyrazolo[3,4-d]pyrimidin-4-ylamino)-N-(4-methylbenzyl)-3,4-dihydroquinoline-1(2H)-carboxamide]	< 50	< 50	< 50	< 50	< 50
Cc1ccccc1-n1ncc(CN2CC(Nc3nc(N)nc4[nH]ncc34)Cc3ccccc32)c1C (stereo not shown) [Compound 161, N4-(1-{[5-methyl-1-(2-methylphenyl)-1H-pyrazol-4-yl]methyl}-1,2,3,4-tetrahydroquinolin-3-yl)-1H-pyrazolo[3,4-d]pyrimidine-4,6-diamine]	< 50	< 50	< 50	< 50	< 50
Nc1nc(NC2Cc3ccccc3N(Cc3c(F)cccc3F)C2)c2cn[nH]c2n1 (stereo not shown) [Compound 150, N4-[1-(2,6-difluorobenzyl)-1,2,3,4-tetrahydroquinolin-3-yl]-1H-pyrazolo[3,4-d]pyrimidine-4,6-diamine]	> 79	50 to 79	< 50	< 50	> 79
Nc1nc(NC2Cc3ccccc3N(C(=O)NCc3ccc(F)cc3)C2)c2cn[nH]c2n1 (stereo not shown) [Compound 115, 3-(6-amino-1H-pyrazolo[3,4-d]pyrimidin-4-ylamino)-N-(4-fluorobenzyl)-3,4-dihydroquinoline-1(2H)-carboxamide]	< 50	< 50	< 50	< 50	< 50
Nc1nc(NC2Cc3ccccc3N(S(=O)(=O)c3ccc(F)cc3)C2)c2cn[nH]c2n1 (stereo not shown) [Compound 20, N4-(1-(4-fluorophenylsulfonyl)-1,2,3,4-tetrahydroquinolin-3-yl)-1H-pyrazolo[3,4-d]pyrimidine-4,6-diamine]	< 50	< 50	< 50	< 50	< 50
Cc1ccccc1CNC(=O)N1CC(Nc2nc(N)nc3[nH]ncc23)Cc2ccccc21 (stereo not shown) [Compound 111, 3-(6-amino-1H-pyrazolo[3,4-d]pyrimidin-4-ylamino)-N-(2-methylbenzyl)-3,4-dihydroquinoline-1(2H)-carboxamide]	< 50	< 50	< 50	< 50	< 50
Nc1nc(NC2CCN(S(=O)(=O)c3ccc(F)c(F)c3)c3ccccc3C2)c2cn[nH]c2n1 (stereo not shown) [Compound 182, N4-{1-[(3,4-difluorophenyl)sulfonyl]-2,3,4,5-tetrahydro-1H-1-benzazepin-4-yl}-1H-pyrazolo[3,4-d]pyrimidine-4,6-diamine]	< 50	< 50	< 50	< 50	< 50
Nc1nc(NC2Cc3ccccc3N(S(=O)(=O)c3cccc(NC(=O)Nc4ccc5c(c4)CCC5)c3)C2)c2cn[nH]c2n1 (stereo not shown) [Compound 214, 1-[3-({3-[(6-amino-1H-pyrazolo[3,4-d]pyrimidin-4-yl)amino]-3,4-dihydroquinolin-1(2H)-yl}sulfonyl)phenyl]-3-(2,3-dihydro-1H-inden-5-yl)urea]	> 79	> 79	> 79	50 to 79	> 79
Nc1nc(NC2Cc3ccccc3N(C(=O)c3c(F)cc(F)cc3F)C2)c2cn[nH]c2n1 (stereo not shown) [Compound 89, (3-(6-amino-1H-pyrazolo[3,4-d]pyrimidin-4-ylamino)-3,4-dihydroquinolin-1(2H)-yl)(2,4,6-trifluorophenyl)methanone]	< 50	< 50	< 50	< 50	< 50
N#Cc1cccc(S(=O)(=O)N2CCC(Nc3nc(N)nc4[nH]ncc34)Cc3ccccc32)c1 (stereo not shown) [Compound 180, 3-({4-[(6-amino-1H-pyrazolo[3,4-d]pyrimidin-4-yl)amino]-2,3,4,5-tetrahydro-1H-1-benzazepin-1-yl}sulfonyl)benzonitrile]	< 50	< 50	< 50	< 50	< 50
Nc1nc(NC2Cc3ccccc3N(S(=O)(=O)c3ccc(C(F)(F)F)cc3)C2)c2cn[nH]c2n1 (stereo not shown) [Compound 44, N4-(1-(4-(trifluoromethyl)phenylsulfonyl)-1,2,3,4-tetrahydroquinolin-3-yl)-1H-pyrazolo[3,4-d]pyrimidine-4,6-diamine]	< 50	< 50	< 50	< 50	< 50
Cc1c(C(=O)N2CC(Nc3nc(N)nc4[nH]ncc34)Cc3ccccc32)oc2ccccc12 (stereo not shown) [Compound 91, (3-(6-amino-1H-pyrazolo[3,4-d]pyrimidin-4-ylamino)-3,4-dihydroquinolin-1(2H)-yl)(3-methylbenzofuran-2-yl)methanone]	50 to 79	> 79	> 79	< 50	> 79
Nc1nc(NC2CCN(S(=O)(=O)c3cccc4c(Cl)cccc34)c3ccccc3C2)c2cn[nH]c2n1 (stereo not shown) [Compound 187, N4-{1-[(5-chloro-1-naphthyl)sulfonyl]-2,3,4,5-tetrahydro-1H-1-benzazepin-4-yl}-1H-pyrazolo[3,4-d]pyrimidine-4,6-diamine]	50 to 79	50 to 79	< 50	< 50	50 to 79
Nc1nc(NC2CCN(S(=O)(=O)c3ccccc3)c3ccccc3C2)c2cn[nH]c2n1 (stereo not shown) [Compound 166, N^4-(1-(phenylsulfonyl)-2,3,4,5-tetrahydro-1H-benzo[b]azepin-4-yl)-1H-pyrazolo[3,4-d]pyrimidine-4,6-diamine]	< 50	< 50	< 50	< 50	< 50
Cc1ccc(S(=O)(=O)N2CCC(Nc3nc(N)nc4[nH]ncc34)Cc3ccccc32)cc1 (stereo not shown) [Compound 177, N4-{1-[(4-methylphenyl)sulfonyl]-2,3,4,5-tetrahydro-1H-1-benzazepin-4-yl}-1H-pyrazolo[3,4-d]pyrimidine-4,6-diamine]	< 50	< 50	< 50	< 50	< 50
Cc1ccc(C)c(CN2CC(Nc3nc(N)nc4[nH]ncc34)Cc3ccccc32)c1 (stereo not shown) [Compound 148, N4-[1-(2,5-dimethylbenzyl)-1,2,3,4-tetrahydroquinolin-3-yl]-1H-pyrazolo[3,4-d]pyrimidine-4,6-diamine]	> 79	> 79	50 to 79	50 to 79	> 79
Nc1nc(NC2Cc3ccccc3N(C(=O)c3ccc(C(F)(F)F)c(F)c3)C2)c2cn[nH]c2n1 (stereo not shown) [Compound 100, (3-(6-amino-1H-pyrazolo[3,4-d]pyrimidin-4-ylamino)-3,4-dihydroquinolin-1(2H)-yl)(3-fluoro-4-(trifluoromethyl)phenyl)methanone]	< 50	< 50	< 50	< 50	< 50
Nc1nc(NC2CCN(S(=O)(=O)c3ccc(C(F)(F)F)cc3)c3ccccc3C2)c2cn[nH]c2n1 (stereo not shown) [Compound 186, N4-(1-{[4-(trifluoromethyl)phenyl]sulfonyl}-2,3,4,5-tetrahydro-1H-1-benzazepin-4-yl)-1H-pyrazolo[3,4-d]pyrimidine-4,6-diamine]	< 50	< 50	< 50	< 50	< 50
